Measurements reported in patent publication US11994511B2, “Biomarkers indicative of prostate cancer and treatment thereof” (UNIVERSITY OF MIAMI, priority 2017, dated 2024).

Key:
Assay type in all cases: cell-based, human
22Rv1 cells = assay: Cell proliferation (cell confluence, Incucyte Zoom) and Compusyn combination index, CRPC cell line 22Rv1; details: 72 hours; DOX 100 ng/mL [184 nM], N-9 200 ng/mL [613 nM]; 10% CSS; vs vehicle (DMSO)
Protocol: FIG. 4A: The CRPC cell line 22Rv I was cultured in 2% CSS media and was treated for 72 hours with vehicle (DMSO), doxorubicin (DOX), N9-isopropylolomoucine (N-9), or the combination of DOX and N-9 at different concentrations. Cell confluence was monitored using Incucyte Zoom System and the experiments were done with eight replicates each. The data were analyzed using Compusyn software, and a normalized isobologram was built. […] CI=1 represents additivity, CI<1 synergism, and Cl>1 antagonistic effects. […] Cell confluence was monitored using the Incucyte Zoom System. […] Cell confluence was monitored using the Incucyte Zoom System. […]
(§4) Cell proliferation: For growth assay, cells were plated in 96-well plates at 5,000 cells/well (for RWPE-1), or 7,500 cells/well (for 22Rvl, C4-2B, PC3), in 6-12 replicates. […] The Incucyte Zoom software was used to analyzed and graph the results.
To test whether inhibition of this network decreased CRPC cell proliferation, we used doxoruhicin (DOX), which inhibits TOP2A (Tacar et al., 201.3), and N9-isopropylolomoucine (N-9), which targets CCNB 1/CDK1 (Havlicek et al, 1997). […] The normalized isohologram and combination index (CI) were built and determined using Compusyn software.

RWPE-1 cells = assay: Cell proliferation (cell confluence, Incucyte Zoom), non-tumorigenic prostate epithelial cell line RWPE-1; details: 72 hours; DOX 100 ng/mL [184 nM], N-9 200 ng/mL [613 nM]; vs vehicle (DMSO)
Protocol: (§5) Cell confluence was monitored using Incucyte Zoom System and the experiments were done with eight replicates each. […] FIG. 4B: The non-tumorigenic prostate epithelial cell line RWPE1, the AR-null PC cell line PC3, and the CRPC cell lines C4-2B and 22Rv1 were treated for 72 hours with vehicle (DMSO), DOX (100 ng/mL [184 nM]), N-9 (200 ng/mL [613 nM]), or the combination of DOX (100 ng/mL [184 nM]) and N-9 (200 ng/mL [613 nM]). C4-2B and 22Rv1 cells were kept in 10% CSS media. Cell confluence was monitored using the Incucyte Zoom System. […] Cell confluence was monitored using the Incucyte Zoom System.
(§6) FIG. 19: The non-tumorigenic prostate epithelial cell line RWPE1, the AR-null PC cell line PC3, the CRPC cell lines C4-2B and 22Rvl and androgen dependent cell line LNCaP were treated for 72 hours with vehicle (DMSO), DOX (100 ng/mL [184 nM]), N-9 (200 ng/mL [613 nM]), or the combination of DOX (100 ng/mL [184 nM]) and N-9 (200 ng/mL [613 nM]). […] Cell confluence was monitored using the Incucyte Zoom System. […]
as §4

PC3 cells = assay: Cell proliferation (cell confluence, Incucyte Zoom), AR-null PC cell line PC3; details: 72 hours; DOX 100 ng/mL [184 nM], N-9 200 ng/mL [613 nM]; vs vehicle (DMSO)
Protocol: as §5, §6, §4

C4-2B cells = assay: Cell proliferation (cell confluence, Incucyte Zoom), CRPC cell line C4-2B; details: 72 hours; DOX 100 ng/mL [184 nM], N-9 200 ng/mL [613 nM]; 10% CSS; vs vehicle (DMSO)
Protocol: as §5, §6, §4

[1] = tested on: seven gene set (KIF20A, KIF23, TOP2A, CCNB1, CCNB2, BUB1, BUB1b) expression in LNCaP cells; assay: qPCR expression of the seven gene set after androgen (R1881) stimulation, LNCaP; details: R1881 0.1 nM, 16 hours, vs vehicle
Protocol: (§1) LNCaP and 22Rv1 cells were seeded and 24 hours later were rinsed twice with PBS and incubated in serum free media for one hour. The cells were then incubated in media containing vehicle or R1881 (0.1 nM) for 16 hours prior to RNA extraction and qPCR analysis. FKBP5 was used as a positive control. Data represent one or two independent experiments, performed in biological triplicates, showing the mean±s.e.m., and normalized to vehicle control. Significant at a p value, ** p value<0.01, *** p value<0.001.
(§2) RNA isolation and reverse transcriptase quantitative RT-qPCR: Total RNA was collected using Trizol according to the manufacturer's protocol (Life Technologies), and isolated using Direct-zol RNA MiniPrep Plus (Zymo Research, Catalog number R2072). Total RNA was reverse transcribed using a cDNA ReverseTranscription kit (Applied Biosystems, Catalog number 4368814) as per the manufacturer's protocol. TaqMan probes from Applied Biosystems for FKBP5 (Hs01561006 ml), UBE2C (Hs00964100 gl), KIF20A (Hs00993573 ml), KIF23 (Hs00370852 ml), TOP2A (Hs01032137 ml), CCNB1 (Hs01030099 ml), CCNB2 (Hs01084593 gl), BUB1 (Hs01557695 ml), BUBlb (Hs01084828 ml) and GAPDH (Hs02786624 gl) were used.
(§3) Because of the overlapping transcriptomes of full length AR and AR-V7, we examined whether full length AR also regulated the seven gene set.

[2] = tested on: seven gene set (KIF20A, KIF23, TOP2A, CCNB1, CCNB2, BUB1, BUB1b) expression in 22Rv1 cells; assay: qPCR expression of the seven gene set after androgen (R1881) stimulation, 22Rv1; details: 22Rv1, R1881 0.1 nM, 16 hours, vs vehicle
Protocol: as §1, §2, §3

SMILES	Effect on proliferation of 22Rv1 (22Rv1 cells)	Effect on proliferation of RWPE-1 (RWPE-1 cells)	Effect on proliferation of PC3 (PC3 cells)	Effect on proliferation of C4-2B (C4-2B cells)	Regulation of expression of the seven genes (qPCR) [1]	Regulation of expression of the seven genes (qPCR) [2]
COc1cccc2c1C(=O)c1c(O)c3c(c(O)c1C2=O)C[C@@](O)(C(=O)CO)C[C@@H]3O[C@H]1C[C@H](N)[C@H](O)[C@H](C)O1 [DOX, Doxorubicin]	no significant effect	no significant effect	no significant effect	no significant effect	–	–
CC(C)n1cnc2c(NCc3ccccc3)nc(NCCO)nc21 [N-9, N9-Isopropylolomoucine]	no significant effect	no significant effect	no significant effect	no significant effect	–	–
C[C@]1(O)CC[C@H]2[C@@H]3CCC4=CC(=O)CCC4=C3C=C[C@@]21C [R1881, methyltrienolone]	–	–	–	–	None of the seven genes are regulated	None of the seven genes are regulated
